This note sets out measurements from patent US11739070B2, “C5A receptor modulators” (IDORSIA PHARMACEUTICALS LTD, priority 2018, dated 2023).

pIC50: −log10 of the molar value.

This assay deals with T1, C5AR1 (Homo sapiens, UniProt P21730).
T1 construct: host or cells: CHO-K1
T1 sequence (P21730 1-350): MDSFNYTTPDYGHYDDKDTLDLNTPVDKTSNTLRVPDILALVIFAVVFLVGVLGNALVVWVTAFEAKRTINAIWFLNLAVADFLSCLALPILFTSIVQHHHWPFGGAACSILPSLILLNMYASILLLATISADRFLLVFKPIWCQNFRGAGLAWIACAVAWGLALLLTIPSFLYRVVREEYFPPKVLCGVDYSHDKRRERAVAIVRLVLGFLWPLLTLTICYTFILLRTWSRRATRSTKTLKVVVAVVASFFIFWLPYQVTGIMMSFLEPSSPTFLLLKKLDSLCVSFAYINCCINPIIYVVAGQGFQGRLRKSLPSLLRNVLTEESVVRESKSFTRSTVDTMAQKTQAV
Put plainly: hC5a DISCO IC50 assay (PathHunter beta-arrestin, antagonist mode). It is filed as cell-based. Conditions: CHO-K1 C5AR1 beta-arrestin cell line; antagonist vs 1-10 nM C5a agonist; geometric mean values; read-out: C5aR IC50. An outline of the steps: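 Antagonist added first, then 1-10 nM C5a agonist; cells incubated 1.5 h at 37 °C. Beta-arrestin signal developed with PathHunter detection reagent, 45 min at RT. IC50 in nmol/l from serial antagonist dilutions, reported as geometric mean of several measurements.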
For `CCN(CCO)Cc1cccc(F)c1N1CC[C@@H](n2c(=O)n(Cc3ccccc3C(F)(F)F)c3c(OC)cccc32)C1` [Example 140, 1-[(R)-1-(2-{[Ethyl-(2-hydroxy-ethyl)-amino]-methyl}-6-fluoro-phenyl)-pyrrolidin-3-yl]-4-methoxy-3-(2-trifluoromethyl-benzyl)-1,3-dihydro-benzoimidazol-2-one], the pIC50 was 5.99.

For `N#Cc1cccc(F)c1N1CC[C@@H](n2c(=O)n(Cc3ccccc3C(F)(F)F)c3c(C(N)=O)cccc32)C1` [Example 100, 1-[(R)-1-(2-Cyano-6-fluoro-phenyl)-pyrrolidin-3-yl]-2-oxo-3-(2-trifluoromethyl-benzyl)-2,3-dihydro-1H-benzoimidazole-4-carboxylic acid amide], the pIC50 is 5.85.

For the molecule `COc1cccc2c1n(Cc1ccccc1C(F)(F)F)c(=O)n2[C@@H]1CCN(c2ccccc2OC(F)(F)F)C1` [Example 201, 4-Methoxy-1-[(R)-1-(2-trifluoromethoxy-phenyl)-pyrrolidin-3-yl]-3-(2-trifluoromethyl-benzyl)-1,3-dihydro-benzoimidazol-2-one], the pIC50 is 7.51.

As to `COc1cccc2c1n(Cc1ccccc1C(F)(F)F)c(=O)n2C1CC2CC1CN2c1c(C)cccc1F` (stereo not drawn) [Example 190, 1-[2-(2-Fluoro-6-methyl-phenyl)-2-aza-bicyclo[2.2.1]hept-5-yl]-4-methoxy-3-(2-trifluoromethyl-benzyl)-1,3-dihydro-benzoimidazol-2-one], the pIC50 is 6.93.

`CCCCOc1ccccc1N1CCC(n2c(=O)n(Cc3ccccc3C(F)(F)F)c3c(OC)cccc32)CC1` [Example 243, 1-[1-(2-Butoxy-phenyl)-piperidin-4-yl]-4-methoxy-3-(2-trifluoromethyl-benzyl)-1,3-dihydro-benzoimidazol-2-one]: the pIC50 was 7.21.

Turning to `COc1cccc2c1n(Cc1nccnc1C(F)(F)F)c(=O)n2C1CCN(c2c(F)cccc2C#N)CC1` [Example 96, 3-Fluoro-2-{4-[4-methoxy-2-oxo-3-(3-trifluoromethyl-pyrazin-2-ylmethyl)-2,3-dihydro-benzoimidazol-1-yl]-piperidin-1-yl}-benzonitrile], the pIC50 was 6.64.

In the case of `COc1cccc2c1n(Cc1nccnc1C(F)(F)F)c(=O)n2C1CCN(c2c(C)cccc2F)CC1` [Example 168, 1-[1-(2-Fluoro-6-methyl-phenyl)-piperidin-4-yl]-4-methoxy-3-(3-trifluoromethyl-pyrazin-2-ylmethyl)-1,3-dihydro-benzoimidazol-2-one], the pIC50 was 8.00.

Take `COc1cccc2c1n(Cc1nccnc1C(C)C)c(=O)n2[C@@H]1CCN(c2c(C)cccc2F)C1` [Example 189, 1-[(R)-1-(2-Fluoro-6-methyl-phenyl)-pyrrolidin-3-yl]-3-(3-isopropyl-pyrazin-2-ylmethyl)-4-methoxy-1,3-dihydro-benzoimidazol-2-one]: the pIC50 was 7.89.

Regarding `COc1cccc2c1n(Cc1ccccc1C(F)(F)F)c(=O)n2[C@@H]1CCN(c2c(F)cccc2CN(CCO)CCO)C1` [Example 141, 1-[(R)-1-(2-{[Bis-(2-hydroxy-ethyl)-amino]-methyl}-6-fluoro-phenyl)-pyrrolidin-3-yl]-4-methoxy-3-(2-trifluoromethyl-benzyl)-1,3-dihydro-benzoimidazol-2-one], the pIC50 was 5.67.

Regarding `COc1cccc(F)c1N1CC[C@@H](n2c(=O)n(Cc3ccccc3C(F)(F)F)c3c(=O)[nH]ccc32)C1` [Example 56, 1-[(R)-1-(2-Fluoro-6-methoxy-phenyl)-pyrrolidin-3-yl]-3-(2-trifluoromethyl-benzyl)-3,5-dihydro-1H-imidazo[4,5-c]pyridine-2,4-dione], the pIC50 is 6.14.

As for `Cc1cccc(C)c1N1CC[C@@H](n2c(=O)n(Cc3ccccc3C(F)(F)F)c3c(NCCO)nccc32)C1` [Example 118, 1-[(R)-1-(2,6-Dimethyl-phenyl)-pyrrolidin-3-yl]-4-(2-hydroxy-ethylamino)-3-(2-trifluoromethyl-benzyl)-1,3-dihydro-imidazo[4,5-c]pyridin-2-one], the pIC50 is 6.70.

As to `COc1cccc2c1n(Cc1ccccc1C(F)(F)F)c(=O)n2[C@@H]1CCN(c2c(C)ccnc2C)C1` [Example 66, 1-[(R)-1-(2,4-Dimethyl-pyridin-3-yl)-pyrrolidin-3-yl]-4-methoxy-3-(2-trifluoromethyl-benzyl)-1,3-dihydro-benzoimidazol-2-one], the pIC50 is 7.22.

Consider `COc1cccc2c1n(Cc1ccccc1C(F)(F)F)c(=O)n2C1CCN(c2c(C)cccc2F)CC1(C)C` (stereo not drawn) [Example 227, 1-[1-(2-Fluoro-6-methyl-phenyl)-3,3-dimethyl-piperidin-4-yl]-4-methoxy-3-(2-trifluoromethyl-benzyl)-1,3-dihydro-benzoimidazol-2-one], for which the pIC50 was 7.52.

For the molecule `COc1cccc2c1n(Cc1ccccc1C(F)(F)F)c(=O)n2[C@@H]1CCN(c2c(C)ccnc2F)C1` [Example 37, 1-[(R)-1-(2-Fluoro-4-methyl-pyridin-3-yl)-pyrrolidin-3-yl]-4-methoxy-3-(2-trifluoromethyl-benzyl)-1,3-dihydro-benzoimidazol-2-one], the pIC50 was 8.15.

Consider `COc1cccc2c1n(Cc1ccccc1OC(C)C)c(=O)n2[C@@H]1CCN(c2c(C)cccc2F)C1` [Example 165, 1-[(R)-1-(2-Fluoro-6-methyl-phenyl)-pyrrolidin-3-yl]-3-(2-isopropoxy-benzyl)-4-methoxy-1,3-dihydro-benzoimidazol-2-one], for which the pIC50 is 8.22.

For `COc1cccc2c1n(Cc1ccccc1C(F)(F)F)c(=O)n2C1CCN(C(=O)OC(C)(C)C)CC1F` (stereo not drawn) [Example 210, 3-Fluoro-4-[4-methoxy-2-oxo-3-(2-trifluoromethyl-benzyl)-2,3-dihydro-benzoimidazol-1-yl]-piperidine-1-carboxylic acid tert-butyl ester], the pIC50 was 5.64.

`COc1cccc2c1n(Cc1cnccc1C(F)(F)F)c(=O)n2C1CCN(c2c(F)cccc2F)CC1` [Example 59, 1-[1-(2,6-Difluoro-phenyl)-piperidin-4-yl]-4-methoxy-3-(4-trifluoromethyl-pyridin-3-ylmethyl)-1,3-dihydro-benzoimidazol-2-one]: the pIC50 is 7.31.

`COc1cccc2c1n(Cc1ccccc1C(F)(F)F)c(=O)n2C1CCCN(c2c(C)cccc2F)CC1` (stereo not drawn) [Example 184, 1-[1-(2-Fluoro-6-methyl-phenyl)-azepan-4-yl]-4-methoxy-3-(2-trifluoromethyl-benzyl)-1,3-dihydro-benzoimidazol-2-one]: the pIC50 is 7.44.

On to `COc1cccc2c1n(Cc1ccccc1C(F)(F)F)c(=O)n2C1CCN(c2c(C)cccc2F)CC1F` (stereo not drawn) [Example 211, 1-[3-Fluoro-1-(2-fluoro-6-methyl-phenyl)-piperidin-4-yl]-4-methoxy-3-(2-trifluoromethyl-benzyl)-1,3-dihydro-benzoimidazol-2-one], for which the pIC50 is 7.57.

`COc1cccc2c1n(Cc1ccccc1C(F)(F)F)c(=O)n2C1CCN(C(=O)OC(C)(C)C)CC1(C)C` (stereo not drawn) [Example 228, 4-[4-Methoxy-2-oxo-3-(2-trifluoromethyl-benzyl)-2,3-dihydro-benzoimidazol-1-yl]-3,3-dimethyl-piperidine-1-carboxylic acid tert-butyl ester]: the pIC50 was 6.59.

Take `COc1cccc2c1n(Cc1ccccc1C(F)(F)F)c(=O)n2[C@H]1CN(C(=O)OC(C)(C)C)C[C@@H]1C` (relative stereo) [Example 196, (3R*,4S*)-3-[4-Methoxy-2-oxo-3-(2-trifluoromethyl-benzyl)-2,3-dihydro-benzoimidazol-1-yl]-4-methyl-pyrrolidine-1-carboxylic acid tert-butyl ester]: the pIC50 was 6.86.

`COc1cccc2c1n(Cc1ccccc1OC1CC1)c(=O)n2C1CCN(c2c(C)cccc2F)CC1` [Example 209, 3-(2-Cyclopropoxy-benzyl)-1-[1-(2-fluoro-6-methyl-phenyl)-piperidin-4-yl]-4-methoxy-1,3-dihydro-benzoimidazol-2-one]: the negative logarithm of the IC50 (pIC50) is 7.47.

As to `COc1cccc2c1n(Cc1ccccc1C(F)(F)F)c(=O)n2[C@@H]1CCN(c2c(F)cccc2CN2CCC(N(C)C)CC2)C1` [Example 136, 1-{(R)-1-[2-(4-Dimethylamino-piperidin-1-ylmethyl)-6-fluoro-phenyl]-pyrrolidin-3-yl}-4-methoxy-3-(2-trifluoromethyl-benzyl)-1,3-dihydro-benzoimidazol-2-one], the pIC50 is 5.80.

Turning to `COc1cccc2c1n(Cc1ccccc1C(F)(F)F)c(=O)n2[C@@H]1CCN(c2c(F)cccc2C#N)C1` [Example 82, 3-Fluoro-2-{(R)-3-[4-methoxy-2-oxo-3-(2-trifluoromethyl-benzyl)-2,3-dihydro-benzoimidazol-1-yl]-pyrrolidin-1-yl}-benzonitrile], the pIC50 is 7.55.
